Measurements taken from patent US11571454B2, “Anticancer peptides that synergistically enhance chemotherapeutic potency” (The Penn State Research Foundation, priority 2017, dated 2023).

Columns and labels:
[1] = tested on: A549 (lung carcinoma) cells; assay: MTT cytotoxicity assay, A549; type: cell-based, human; details: for IC50: 48 hours treatment, MTT, read-out: Cancerous (IC50, μM) A549
Protocol: (§1) All cells were cultured using standard culture conditions at 37° C., 5% CO2, and 95% humidity. A549 (CCL-185), OVCAR-3 (HTB-161), T24 (HTB-4), and NCI/ADR-RES were cultured in RPMI-1640 supplemented with 10% v/v fetal bovine serum (FBS), 2 mM L-glutamine (L-Gln), 10,000 units penicillin/mL, 10 mg/mL streptomycin, and 25 μg/mL amphotericin B. HUVEC (PCS-100-010) cells were cultured in Vascular Cell Basal Media (PCS-100-030) supplemented with an Endothelial Cell Growth Kit-VEGF (PCS-100-041) and 10 μg/mL gentamycin in culture flasks coated with 0.1% gelatin by incubating at 37° C. for 15 min. NL20 (CRL-2503) cells were cultured in Ham's F12 supplemented with 1.5 g/L sodium bicarbonate, 2.7 g/L glucose, 2.0 mM L-glutamine, 0.1 mM nonessential amino acids, 0.005 mg/ml insulin, 10 ng/ml epidermal growth factor, 0.001 mg/ml transferrin, 500 ng/ml hydrocortisone and 4% fetal bovine serum, as advised by American Type Culture Collection (ATCC).
(§2) Viability was calculated by comparing to an untreated control.
(§3) All experiments were performed with n>6.
(§4) Cell viability experiments were completed n>6 in two independent experiments and analyzed using GraphPad Prism 8 to fit curves and calculate IC50 values using inhibitor vs. normalized response non-linear regression model. IC50 values are reported as mean values±standard deviation. […] Pore size frequency distribution was completed by ImageJ FIJI on 4 independent cells and n=30 pores from SEM images. UV-Vis OD600 and CD spectra are means of 5 and 3 replicates, respectively and reported as mean±standard deviation. Individual UV-Vis and CD spectra, as well as fluorescent confocal and TEM micrographs, shown are representative plots from three individual experiments. CD data is with a variance in ellipticity of 0.2 millidegrees at each wavelength. Relative fluorescence data calculated from fluorescent confocal images represents the average of 10 independent measurements±standard deviation. For spheroid volume analysis, a Kruskal-Wallis test and Dunn's multiple comparisons test was performed using GraphPad Prism 8.

[2] = tested on: NCI/ADR-RES (drug-resistant ovarian carcinoma) cells; assay: MTT cytotoxicity assay, NCI/ADR-RES; type: cell-based, human; details: for IC50: 48 hours treatment, MTT, read-out: Cancerous (IC50, μM) NCl/ADR-RES
Protocol: as §1, §2, §3, §4

[3] = Liposome disruption (OD600), cancer membrane model; details: OD600 and visual flocculates
Protocol: (§5) Liposomes were prepared by extrusion techniques according to previous methods. Briefly, all liposomes were prepared in 2×concentration (5 mM). Healthy and cancer liposomal mimicking membranes were prepared with 72:23:[…] phosphatidylcholine (POPC):phosphatidylethanolamine (DOPE):phosphatidylserine (POPS) lipids, respectively. The lipids dissolved in chloroform were mixed in proper molar proportions before being evaporated under a stream of argon. The lipid film was then dried completely by lyophilization overnight. […] The extruded liposomes were then dialyzed in 3500 MWCO dialysis cassettes against water. Parallel optical density experiments were conducted measuring the absorbance at 600 nm (OD600) to track the kinetics and specificity of membrane disruption. Measurements were taken every 30 seconds for the first 10 min., followed by measurements every minute until 15 min.

[4] = Liposome disruption (OD600), normal membrane model
Protocol: as §5

[5] = tested on: polymicrobial panel (six bacterial lines); assay: Antimicrobial activity against polymicrobial panel; type: cell-based; details: six bacterial lines
[6] = tested on: non-cancerous cell lines HUVEC and NL20; assay: MTT cytotoxicity, non-cancerous control cell lines; type: cell-based, human
Protocol: as §1, §2, §3

[7] = tested on: OVCAR-3 ovarian carcinoma cells; details: for IC50: 48 h
[8] = tested on: T24 (urinary bladder transitional cell carcinoma) cells; details: 48 h
[9] = tested on: human umbilical vein endothelial cells (HUVEC); details: 48 h
[10] = tested on: human lung epithelium (NL20); details: 48 h
[11] = tested on: B. subtilis (168); details: 24 hours, Gram Positive
[12] = tested on: MS S. aureus; details: 24 hours, Gram Positive
[13] = tested on: MR S. aureus; details: 24 hours, Gram Positive
[14] = tested on: P. aeruginosa; details: 24 hours, Gram Negative
[15] = tested on: E. coli; details: 24 hours, Gram Negative
[16] = tested on: M. tuberculosis; details: 24 hours, Mycobacteria
[17] = tested on: panel of human cancer cell lines (A549, OVCAR-3, NCI/ADR-RES, T24)
[18] = tested on: T24 (urinary bladder transitional cell carcinoma) cells; assay: MTT cytotoxicity assay, T24; details: IC50-HUVEC/IC50-T24
[19] = tested on: NCI/ADR-RES cells; assay: Combinatorial (checkerboard) cytotoxicity, NCI/ADR-RES; type: cell-based, human; details: for Combined FIC Score, NCl/ADR-RES: chemotherapeutic in combination with MAD1, FIC <1 additive, <0.5 synergistic; for synergy with MAD1, NCI/ADR-RES: multidrug resistant line, combination with MAD1; for drug potency (IC50) in NCI/ADR-RES on co-treatment with MAD1: in the presence of 20 μM MAD1, compared with OVCAR-3
Excerpt: (§6) For combinatorial cytotoxicity experiments, 96 well plates were set up in a checkerboard fashion such that peptide decreased in 1:10 concentration dilutions in one direction and chemotherapeutic decreased in 1:10 concentration dilutions in the orthogonal direction. 2×treatments were combined prior to cell administration for a final 1×concentration to prevent individual treatment effects.

[20] = tested on: OVCAR-3 cells; assay: Combinatorial (checkerboard) cytotoxicity, OVCAR-3; type: cell-based, human; details: for Combined FIC Score, OVCAR-3: chemotherapeutic in combination with MAD1, FIC <1 additive, <0.5 synergistic; for synergy with MAD1, OVCAR-3: drug-refractory line, combination with MAD1
Excerpt: as §6

[21] = tested on: patient-derived tumor cell spheroids (EOC15, 17, 19); assay: Ex vivo 3D tumor spheroid culture; type: cell-based, human
Protocol: EOC patient-derived cells were cultured in 1:1 MCDB-105: M199 supplemented with 10% FBS and 1% penicillin-streptomycin. EOC patient-derived cells were provided by Dr. Katherine M. Aird under an Institutional Review Board-approved protocol. EOC patient-derived cells were collected from patient ascites fluid after paracentesis procedures. Cells were routinely tested for mycoplasma as previously described. […] Spheroid length and width was calculated using ImageJ. Spheroid volume was calculated using the following equation […] Statistical Methods […] IC50 values are reported as mean values±standard deviation. […] Pore size frequency distribution was completed by ImageJ FIJI on 4 independent cells and n=30 pores from SEM images. […] Individual UV-Vis and CD spectra, as well as fluorescent confocal and TEM micrographs, shown are representative plots from three individual experiments. CD data is with a variance in ellipticity of 0.2 millidegrees at each wavelength. Relative fluorescence data calculated from fluorescent confocal images represents the average of 10 independent measurements±standard deviation. For spheroid volume analysis, a Kruskal-Wallis test and Dunn's multiple comparisons test was performed using GraphPad Prism 8.

For H-LWKRWVGVWRKWL-NH2 [DAP1], the IC50 [1] was 11.9 µM, the “Therapeutic Index A549” value ([1]; IC50-HUVEC/IC50-A549) was 1.6 and the IC50 [2] was 14 µM. For the same molecule, the “Therapeutic Index NCl/ADR-RES” value ([2]; IC50-HUVEC/IC50-NCI/ADR-RES) was 1.4, the “disruption/lysis of cancer membrane liposomes” value [3] was “does not completely lyse” and the “disruption/interaction with normal (healthy) membrane liposomes” value [4] was “little interaction affinity”. The “antimicrobial activity against polymicrobial panel” value [5] was “bactericidal activity”, the “toxicity towards non-cancerous control cell lines” value [6] was “nearly equal toxicity” and the IC50 [7] was 8.6 µM. For the same molecule, the “Therapeutic Index OVCAR-3” value ([7]; IC50-HUVEC/IC50-OVCAR-3) was 2.3, the IC50 [8] was 15.3 µM and the IC50 [9] was 19.5 µM. For the same molecule, the IC50 [10] was 19 µM, the “MIC (μM) B. subtilis (168)” value [11] was under 0.6 µM and the “MIC (μM) MS S. aureus” value [12] was 7 µM. For the same molecule, the “MIC (μM) MR S. aureus” value [13] was 5 µM, the “MIC (μM) P. aeruginosa” value [14] was 20 µM and the “MIC (μM) E. coli” value [15] was 10 µM. The “MIC (μM) M. tuberculosis” value [16] was 20 µM, the IC50 [17] was 8.6 to 15.3 µM and the “therapeutic indices across cell lines” value ([17]; relative to HUVEC controls) was at most 2.3. The “Therapeutic Index T24” value [18] was 1.3.
For `CC(=O)O[C@H]1C(=O)[C@@]2(C)[C@H]([C@H](OC(=O)c3ccccc3)[C@]3(O)C[C@H](OC(=O)[C@H](O)[C@@H](NC(=O)c4ccccc4)c4ccccc4)C(C)=C1C3(C)C)[C@]1(OC(C)=O)CO[C@@H]1C[C@@H]2O` [Ptx, Paclitaxel], the “Combined FIC Score, NCl/ADR-RES” value [19] was 0.27 and the “synergy with MAD1, NCI/ADR-RES” value [19] was “potently synergizes”.
For `N.N.[Cl][Pt][Cl]` [Cis, Cisplatin], the “Combined FIC Score, OVCAR-3” value [20] was 0.31, the “synergy with MAD1, OVCAR-3” value [20] was “potently synergizes” and the “Combined FIC Score, NCl/ADR-RES” value [19] was 0.27. The “drug potency (IC50) in NCI/ADR-RES on co-treatment with MAD1” value [19] was “restored the potency”, the “synergy with MAD1, NCI/ADR-RES” value [19] was “potently synergizes” and the “spheroid size, combination” value ([21]; 2 μM cisplatin combined with 4 μM MAD1, 48 hours) was “potent and synergistic anticancer effects”. The “spheroid size, single agent” value ([21]; 2 μM cisplatin or 4 μM MAD1 alone, 48 hours) was “minimal reduction in size”.
In the case of H-RWGKWFKKNSHLS-NH2 [DAP2], the IC50 [1] is reported as over 100 µM, the IC50 [2] is reported as over 100 µM and the “antimicrobial activity against polymicrobial panel” value [5] is reported as “inactive”. For the same molecule, the IC50 [7] was over 100 µM, the “Cancerous (IC50, μM) OVCAR-3” value ([7]; 48 hours treatment, MTT) was “did not achieve an IC50” and the IC50 [8] was over 100 µM. The IC50 [9] was over 100 µM, the IC50 [10] was over 100 µM and the “MIC (μM) B. subtilis (168)” value [11] was over 80 µM. The “MIC (μM) MS S. aureus” value [12] was over 80 µM, the “MIC (μM) MR S. aureus” value [13] was over 80 µM and the “MIC (μM) P. aeruginosa” value [14] was over 80 µM. For the same molecule, the “MIC (μM) E. coli” value [15] was over 80 µM, the “MIC (μM) M. tuberculosis” value [16] was over 80 µM and the “activity towards all four tumor cell lines tested” value ([17]; result in words) was “inactive”.
In the case of `COc1cccc2c1C(=O)c1c(O)c3c(c(O)c1C2=O)C[C@@](O)(C(=O)CO)C[C@@H]3O[C@H]1C[C@H](N)[C@H](O)[C@H](C)O1` [Dox, Doxorubicin], the “Combined FIC Score, OVCAR-3” value [20] is reported as 0.33, the “synergy with MAD1, OVCAR-3” value [20] is reported as “potently synergizes” and the “Combined FIC Score, NCl/ADR-RES” value [19] is reported as 0.37. The “drug potency (IC50) in NCI/ADR-RES on co-treatment with MAD1” value [19] was “restored the potency” and the “synergy with MAD1, NCI/ADR-RES” value [19] was “potently synergizes”.
